Laboratory results reported in PubChem BioAssay (NCI).
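Each compound was tested at five concentrations against cells in 96-well plates for 48 hours. GI50 is the concentration that inhibits growth by half. At the TGI there is no net growth.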

Legend:
Experiment in all cases: NCI-60 cell line screen, 48 h
[1] = test system: HS 578T breast
[2] = test system: SF-268 CNS
[3] = test system: NCI-H226 lung
[4] = test system: T-47D breast
[5] = test system: MCF7 breast
[6] = test system: SR leukemia
[7] = test system: CAKI-1 renal
[8] = test system: TK-10 renal
[9] = test system: A549 NSCLC
[10] = test system: SW-620 colon
[11] = test system: HCC-2998 colon
[12] = test system: HCT-15 colon
[13] = test system: NCI-H522 lung
[14] = test system: OVCAR-5 ovarian
[15] = test system: NCI-H23 lung
[16] = test system: SF-295 CNS
[17] = test system: CCRF-CEM leukemia
[18] = test system: SK-OV-3 ovarian
[19] = test system: NCI-H460 lung
[20] = test system: IGROV1 ovarian
[21] = test system: U251 CNS
[22] = test system: HOP-92 NSCLC
[23] = test system: OVCAR-4 ovarian
[24] = test system: HT29 colon
[25] = test system: BT-549 breast
[26] = test system: NCI/ADR-RES ovarian
[27] = test system: MDA-MB-435

CC(C)(C)c1cc(NC(=O)Nc2ccc(-c3cn4c5c(sc4n3)CCc3cn(CCCN4CCCCC4)cc3-5)cc2)no1
GI50 [1]: 1.82 µM
TGI [1]: 3.85 µM
GI50 [2]: 1.81 µM
TGI [2]: 3.89 µM
GI50 [3]: > 100 µM
TGI [3]: > 100 µM
GI50 [4]: 1.79 µM
TGI [4]: 3.85 µM
GI50 [5]: 1.75 µM
TGI [5]: 3.81 µM
GI50 [6]: 2.13 µM
TGI [6]: 6.77 µM
GI50 [7]: 1.64 µM
TGI [7]: 3.12 µM
GI50 [8]: 1.82 µM
TGI [8]: 3.27 µM
GI50 [9]: 1.83 µM
TGI [9]: 3.47 µM
GI50 [10]: 1.8 µM
TGI [10]: 3.36 µM
GI50 [11]: 1.91 µM
TGI [11]: 3.77 µM
GI50 [12]: 1.66 µM
TGI [12]: 3.3 µM
GI50 [13]: 1.89 µM
TGI [13]: 3.74 µM
GI50 [14]: 1.75 µM
TGI [14]: 3.18 µM
GI50 [15]: 1.82 µM
TGI [15]: 3.52 µM
GI50 [16]: 1.73 µM
TGI [16]: 3.25 µM
GI50 [17]: 2.01 µM
TGI [17]: 6.44 µM
GI50 [18]: 1.72 µM
TGI [18]: 3.28 µM
GI50 [19]: 1.8 µM
TGI [19]: 3.64 µM
GI50 [20]: 1.96 µM
TGI [20]: 3.82 µM
GI50 [21]: 1.47 µM
TGI [21]: 2.88 µM
GI50 [22]: 1.42 µM
TGI [22]: 2.82 µM
GI50 [23]: 1.78 µM
TGI [23]: 3.59 µM
GI50 [24]: 1.99 µM
TGI [24]: 3.91 µM
GI50 [25]: 1.75 µM
TGI [25]: 3.29 µM
GI50 [26]: 2.09 µM
TGI [26]: 4.73 µM
GI50 [27]: 1.73 µM
TGI [27]: 3.17 µM
